In ChEMBL document CHEMBL1201862, “PubChem BioAssay data set” (2004):
Active and inactive are the calls of the source.

Experiments:
[1] = biological target: T1, Sentrin-specific protease 6 (Homo sapiens, UniProt Q9GZR1); assay: SAR Analysis of small molecule inhibitors of Sentrin-specific protease 6 (SENP6) using a Luminescent assay. [Related pubchem assays (depositor defined):AID2582, AID2599]; type: functional
T1 sequence (Q9GZR1 whole entry): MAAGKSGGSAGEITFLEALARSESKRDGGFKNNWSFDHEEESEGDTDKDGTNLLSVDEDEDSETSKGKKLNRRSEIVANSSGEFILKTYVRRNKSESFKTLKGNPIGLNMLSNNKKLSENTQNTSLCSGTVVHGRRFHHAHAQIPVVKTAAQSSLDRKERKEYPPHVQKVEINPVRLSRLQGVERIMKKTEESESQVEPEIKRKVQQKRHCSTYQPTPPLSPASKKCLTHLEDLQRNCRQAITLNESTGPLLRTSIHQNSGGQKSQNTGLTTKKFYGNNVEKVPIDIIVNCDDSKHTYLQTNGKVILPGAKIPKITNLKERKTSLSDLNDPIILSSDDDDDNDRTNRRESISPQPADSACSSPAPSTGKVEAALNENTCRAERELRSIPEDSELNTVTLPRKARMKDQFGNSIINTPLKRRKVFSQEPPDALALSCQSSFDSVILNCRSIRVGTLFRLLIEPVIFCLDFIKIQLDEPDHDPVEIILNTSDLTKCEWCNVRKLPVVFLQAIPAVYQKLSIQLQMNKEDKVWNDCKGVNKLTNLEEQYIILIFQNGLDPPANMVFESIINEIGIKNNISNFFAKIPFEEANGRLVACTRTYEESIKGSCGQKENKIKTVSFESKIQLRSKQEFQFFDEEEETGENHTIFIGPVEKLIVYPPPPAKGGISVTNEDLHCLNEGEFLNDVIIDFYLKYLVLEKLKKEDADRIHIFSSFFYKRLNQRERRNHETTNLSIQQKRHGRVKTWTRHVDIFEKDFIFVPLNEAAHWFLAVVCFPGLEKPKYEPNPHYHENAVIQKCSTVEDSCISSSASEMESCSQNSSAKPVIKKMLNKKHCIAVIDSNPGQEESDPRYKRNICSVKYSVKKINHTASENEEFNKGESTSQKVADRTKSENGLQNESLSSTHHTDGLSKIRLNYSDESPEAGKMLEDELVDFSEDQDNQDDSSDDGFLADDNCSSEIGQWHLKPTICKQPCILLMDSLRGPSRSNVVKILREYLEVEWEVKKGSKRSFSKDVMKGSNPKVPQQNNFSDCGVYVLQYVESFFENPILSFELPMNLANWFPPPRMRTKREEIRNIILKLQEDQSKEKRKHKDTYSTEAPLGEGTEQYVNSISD

[2] = biological target: Serine/threonine-protein phosphatase PP1-alpha catalytic subunit (Homo sapiens, UniProt P62136); assay: inhibition of protein phosphatase 1 activity – biochemical, fluorescence, dose response (AID 2394)
Chain of Serine/threonine-protein phosphatase PP1-alpha catalytic subunit (P62136 whole entry): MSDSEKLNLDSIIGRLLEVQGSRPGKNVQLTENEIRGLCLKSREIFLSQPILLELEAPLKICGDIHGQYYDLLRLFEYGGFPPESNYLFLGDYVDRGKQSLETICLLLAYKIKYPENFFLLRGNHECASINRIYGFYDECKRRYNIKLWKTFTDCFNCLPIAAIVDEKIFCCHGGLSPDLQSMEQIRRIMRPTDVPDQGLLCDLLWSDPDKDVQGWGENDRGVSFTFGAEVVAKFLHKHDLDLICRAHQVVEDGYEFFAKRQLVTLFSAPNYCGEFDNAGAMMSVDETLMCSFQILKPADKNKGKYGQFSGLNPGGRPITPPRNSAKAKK

[3] = biological target: T2, Sentrin-specific protease 8 (Homo sapiens, UniProt Q96LD8); assay: inhibition of human SENP8 cleavage activity – biochemical, luminescence, SAR follow-up (AID 504501); type: functional
T2 sequence (Q96LD8 whole entry): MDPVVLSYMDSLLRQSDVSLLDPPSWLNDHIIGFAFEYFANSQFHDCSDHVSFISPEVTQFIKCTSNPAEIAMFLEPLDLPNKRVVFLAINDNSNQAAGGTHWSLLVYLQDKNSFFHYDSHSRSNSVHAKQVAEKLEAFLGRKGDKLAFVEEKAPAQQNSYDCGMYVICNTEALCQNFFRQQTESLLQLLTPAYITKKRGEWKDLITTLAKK

[4] = biological target: Serine/threonine-protein phosphatase (Homo sapiens, UniProt Q9BPW0); assay: inhibition of protein phosphatase 5 activity – biochemical, fluorescence, dose response (AID 2395)
Chain of Serine/threonine-protein phosphatase (Q9BPW0 whole entry): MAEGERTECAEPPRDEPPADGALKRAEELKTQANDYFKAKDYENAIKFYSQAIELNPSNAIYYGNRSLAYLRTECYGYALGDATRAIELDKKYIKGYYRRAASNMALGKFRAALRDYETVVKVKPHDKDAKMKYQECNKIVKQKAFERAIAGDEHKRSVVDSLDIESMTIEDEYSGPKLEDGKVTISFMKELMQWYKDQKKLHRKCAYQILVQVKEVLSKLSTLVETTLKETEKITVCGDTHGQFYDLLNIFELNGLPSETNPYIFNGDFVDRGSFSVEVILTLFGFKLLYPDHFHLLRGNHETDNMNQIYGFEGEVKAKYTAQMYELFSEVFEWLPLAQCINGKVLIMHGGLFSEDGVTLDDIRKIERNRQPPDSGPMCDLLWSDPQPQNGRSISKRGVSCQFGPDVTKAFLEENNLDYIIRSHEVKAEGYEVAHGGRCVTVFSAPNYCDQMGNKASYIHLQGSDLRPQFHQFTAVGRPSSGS

Caspase-3 = biological target: T3, Caspase-3 (Homo sapiens, UniProt P42574); assay: SAR Analysis of small molecule inhibitors of Sentrin-specific proteases (SENPs) using a Caspase-3 Selectivity assay. [Related pubchem assays (depositor defined):AID2540, AID2599, AID434973, AID489001]; type: functional
T3 sequence (P42574 whole entry): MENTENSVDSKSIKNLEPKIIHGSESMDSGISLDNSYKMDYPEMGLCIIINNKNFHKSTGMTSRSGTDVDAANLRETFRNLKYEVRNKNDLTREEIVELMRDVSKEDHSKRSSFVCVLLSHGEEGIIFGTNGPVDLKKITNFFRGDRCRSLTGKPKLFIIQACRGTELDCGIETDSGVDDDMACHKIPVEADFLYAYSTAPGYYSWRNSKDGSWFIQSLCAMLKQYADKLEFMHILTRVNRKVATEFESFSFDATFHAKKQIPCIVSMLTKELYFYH

cells = type: functional, cell-based
[5] = biological target: ATP-dependent molecular chaperone HSP82 (Candida albicans (strain WO-1) (Yeast), UniProt C4YTQ8); assay: steroid-induced GRE reporter decrease in yeast – S. cerevisiae, luminescence, Hsp90 inhibitor project, dose response (AID 2400); type: functional, cell-based;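 also: beta-galactosidase luminescence from glucocorticoid response element reporter as proxy for Hsp90 function; inhibitor potency where signal loss means Hsp90 inhibition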
Chain of ATP-dependent molecular chaperone HSP82 (C4YTQ8 whole entry): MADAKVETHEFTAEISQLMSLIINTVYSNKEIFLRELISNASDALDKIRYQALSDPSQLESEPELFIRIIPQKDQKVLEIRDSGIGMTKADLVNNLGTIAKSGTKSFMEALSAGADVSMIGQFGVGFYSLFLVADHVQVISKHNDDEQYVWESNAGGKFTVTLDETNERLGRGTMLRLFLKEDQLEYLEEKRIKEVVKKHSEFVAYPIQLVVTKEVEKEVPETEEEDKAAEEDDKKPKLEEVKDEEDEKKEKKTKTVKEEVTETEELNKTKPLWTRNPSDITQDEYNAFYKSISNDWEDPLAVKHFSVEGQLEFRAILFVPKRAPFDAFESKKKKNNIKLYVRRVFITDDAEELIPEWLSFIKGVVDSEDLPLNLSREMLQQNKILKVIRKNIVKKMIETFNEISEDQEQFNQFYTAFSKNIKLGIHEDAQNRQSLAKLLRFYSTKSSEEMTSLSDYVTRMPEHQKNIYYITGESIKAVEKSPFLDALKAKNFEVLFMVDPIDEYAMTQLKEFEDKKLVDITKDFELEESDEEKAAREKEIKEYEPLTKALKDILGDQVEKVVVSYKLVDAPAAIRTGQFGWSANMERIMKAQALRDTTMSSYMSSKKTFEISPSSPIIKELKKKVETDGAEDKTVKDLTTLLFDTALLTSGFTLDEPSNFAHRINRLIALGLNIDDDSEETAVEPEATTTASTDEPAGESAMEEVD

[6] = NIH-3T3 fibroblast cytotoxicity, dose response, cytotoxicity control, cell-based, fluorescence, Alamar Blue, secondary assay (AID 2327); type: functional;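 also: NIH-3T3 mouse fibroblasts cultured with fluconazole at 8 µg/mL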
[7] = biological target: T4, Sphingosine 1-phosphate receptor 4 (Homo sapiens, UniProt O95977); assay: Late stage fluorescence dose response cell-based screening assay for antagonists of the Sphingosine 1-Phosphate Receptor 4 (S1P4). [Related pubchem assays: 1524 (Confirmation screen (S1P4 antagonists).), 1510 (Primary screen (S1P4 antagonists).), 1853 (Summary AID (S1P4 antagonists).), 1692 (Dose response screen (S1P4 antagonists).)]; type: functional
T4 sequence (O95977 whole entry): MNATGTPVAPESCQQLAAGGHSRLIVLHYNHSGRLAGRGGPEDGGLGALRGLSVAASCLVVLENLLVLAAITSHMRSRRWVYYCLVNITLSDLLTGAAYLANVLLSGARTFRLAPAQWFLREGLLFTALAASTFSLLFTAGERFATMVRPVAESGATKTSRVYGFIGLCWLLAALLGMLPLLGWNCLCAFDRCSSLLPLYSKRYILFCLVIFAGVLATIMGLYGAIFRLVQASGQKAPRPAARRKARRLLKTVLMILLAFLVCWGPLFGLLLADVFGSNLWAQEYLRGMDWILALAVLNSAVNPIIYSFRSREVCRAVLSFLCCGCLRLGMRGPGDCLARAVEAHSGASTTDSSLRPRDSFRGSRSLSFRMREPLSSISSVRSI

[8] = biological target: T4, Sphingosine 1-phosphate receptor 4; assay: Fluorescence dose response cell-based high throughput screening assay for antagonists of the Sphingosine 1-Phosphate Receptor 4 (S1P4). [Related pubchem assays: 1524 (Confirmation in triplicates.), 1510 (Primary screen.)]; type: functional
[9] = toxicity toward HepG2 liver cells – cell-based, plate reader, cherry-pick, antagonist series, cytotoxicity control, dose response (AID 743416); type: functional
[10] = biological target: Kappa-type opioid receptor (Homo sapiens, UniProt P41145); type: functional
Chain of Kappa-type opioid receptor (P41145 whole entry): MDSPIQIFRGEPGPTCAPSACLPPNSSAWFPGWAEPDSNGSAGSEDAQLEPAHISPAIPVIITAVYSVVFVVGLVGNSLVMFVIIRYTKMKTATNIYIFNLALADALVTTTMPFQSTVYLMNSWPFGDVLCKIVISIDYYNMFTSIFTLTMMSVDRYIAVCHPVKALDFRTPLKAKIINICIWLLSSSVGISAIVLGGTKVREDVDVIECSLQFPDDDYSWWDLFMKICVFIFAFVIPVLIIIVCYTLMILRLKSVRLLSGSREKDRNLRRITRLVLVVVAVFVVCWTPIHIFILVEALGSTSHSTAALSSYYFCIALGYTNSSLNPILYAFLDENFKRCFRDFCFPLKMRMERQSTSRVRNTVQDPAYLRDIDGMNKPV

[11] = biological target: Sphingosine 1-phosphate receptor 1 (Homo sapiens, UniProt P21453); type: functional;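 also: Tango beta-arrestin reporter U2OS cells stimulated with S1P near its EC80; inhibitor potency meaning antagonism of receptor activation by the natural agonist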
Chain of Sphingosine 1-phosphate receptor 1 (P21453 whole entry): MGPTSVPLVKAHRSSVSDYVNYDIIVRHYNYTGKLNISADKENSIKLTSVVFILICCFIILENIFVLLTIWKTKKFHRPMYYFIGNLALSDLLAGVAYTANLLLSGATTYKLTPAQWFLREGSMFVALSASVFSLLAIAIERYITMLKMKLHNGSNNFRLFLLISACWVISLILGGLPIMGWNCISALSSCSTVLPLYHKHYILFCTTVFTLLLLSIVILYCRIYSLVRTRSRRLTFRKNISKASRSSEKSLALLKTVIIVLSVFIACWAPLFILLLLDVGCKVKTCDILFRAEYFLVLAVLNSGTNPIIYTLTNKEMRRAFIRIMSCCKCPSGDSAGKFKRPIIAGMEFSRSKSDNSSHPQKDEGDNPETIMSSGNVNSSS

Oc1ccc(/C=N\Nc2cc(N3CCOCC3)nc(N3CCOCC3)n2)c(O)c1
IC50 [1]: 31.8 µM (active) | IC50 [2]: > 67 µM (not active) | IC50 [3]: > 99 µM (inactive) | IC50 [4]: 5.72 µM (active) | IC50 (Caspase-3): > 99 µM (inactive)

Cc1ccc(C)c(S(=O)(=O)N2CCN(Cc3ccc(O)c4ncccc34)CC2)c1
EC50 (cells): 7.58 µM (active) | EC50 [5]: > 160 µM (inactive) | EC50 [6]: 81.5 µM (active)

COc1cc(NC(=O)Cn2ncc(Cl)c(Cl)c2=O)c(C)cc1[N+](=O)[O-]
IC50 [7]: 6.74 µM (not active) | IC50 [8]: 1.32 µM (active) | AC50 [9]: 9.1 µM (active) | IC50 [10]: 12.9 µM (active) | IC50 [11]: > 49.8 µM (not active)
